Laboratory results as given in US20260226493A1, “HERBICIDE RESISTANT PLANTS” (SYNGENTA CROP PROTECTION AG, priority 2023, published 2026).

Columns and labels:
[1] = target: T1, Arabidopsis thaliana BioDA variant enzymes (Arabidopsis thaliana, UniProt B0F481); experiment: biochemical; conditions: WT Arabidopsis thaliana BioDA (SEQ ID NO 294); read-out: IC50
T1 construct: with the predicted N-terminal mitochondrial transit peptide removed; 6xHis-tag (N); thrombin cleavage site (N); made in house; host or cells: E. coli BL21 (DE3) bioA
Description: (§1) These plasmids were then expressed in E. coli BL21 (DE3) bioA with 50 μg/mL kanamycin and 25 μg/mL chloramphenicol selection. Overnight cultures grown at 37° C. were used to inoculate 8×500 mL AIM in shake flasks at a ratio of 1:100. Cultures were grown at 37° C., 200 rpm for 3.5 hours and then overnight at 20° C. Cells were harvested by centrifugation for 30 minutes at 10 000 g. Cells were stored at −80° C. until extraction. 30 g of cell pellet from was thawed in 120 mL of IMAC buffer A (20 mM HEPES pH7.5, 25 mM imidazole, 500 mM sodium chloride, 0.15 mM pyridoxal phosphate, 0.5 mM TCEP, 1× complete Protease Inhibitor Tablet (Roche)). The resuspension was passed through a cell disrupter at 18 000 PSI and centrifuged at 50 000 g for 25 minutes at 4° C. The His-tagged BIO3-BIO1 protein was purified from the extract supernatant on an AKTA avant chromatography system (Cytiva) using a HisTrap FF column and eluted in IMAC buffer B ((20 mM HEPES pH7.5, 500 mM imidazole, 500 mM sodium chloride, 0.15 mM pyridoxal phosphate, 0.5 mM TCEP) followed by SEC using a HiLoad 26/60 Superdex200 column in SEC buffer (25 mM HEPES pH7.5, 150 mM sodium chloride, 0.15 mM pyridoxal phosphate, 0.5 mM TCEP). Protein concentration was measured and calculated using the absorbance at 280 nm. Extracts were diluted 1 in 4 and 10 uL was analysed by SDS PAGE.
(§2) To measure BIO3-BIO1 mutant enzyme activity in the presence of herbicide, herbicides were incubated with 20 μL of enzyme mix (100 mM EPPS pH 8.6, 0.1 mM pyridoxal phosphate, 0.1 mg/mL BSA, 50 nM BIO3-BIO1 enzyme) for 10 minutes at 20° C. in a well of a 96-well half-area black plate, followed by the addition of 20 μL of substrate mix (final concentration of 100 mM EPPS pH 8.6, 0.1 mM pyridoxal phosphate, 0.1 mg/mL BSA, 100 μM spermidine, 20 μM KAPA, 100 mM NaCO3) and further incubation for 75 minutes at 20° C. The reaction was terminated by the addition of 50 μL of derivatisation mix (final concentration of 250 mM borate NaOH pH 9.4, 3.6 mM o-phthalaldehyde, 7 mM β-mercaptoethanol, 17% (v/v) ethanol, 3.6% (v/v) methanol). The fluorescent product produced by the reaction of DAPA with o-phthalaldehyde and 7 mM β-mercaptoethanol was measured at 470 nm after excitation at 410 nm.
(§3) For IC50 calculations, appropriate dose responses of compounds L, M, B, K and G were used. Calculated percentage inhibitions were then input into GraphPad Prism 7 and IC50s calculated using the non-linear regression (vs. normalised response) equation.

[2] = target: T2, Arabidopsis thaliana BioDA variant enzymes (Arabidopsis thaliana, UniProt B0F481, C388D); experiment: biochemical
T2 construct: with the predicted N-terminal mitochondrial transit peptide removed; 6xHis-tag (N); thrombin cleavage site (N); made in house; host or cells: E. coli BL21 (DE3) bioA
Description: as §1, §2, §3

[3] = test system: D4539 (Escherichia coli MTP BioA) containing tobacco plants; experiment: Visual herbicide damage score on transgenic tobacco D4539 (pBin TMV MTP EcBioA); assay type: in vivo; conditions: 600 gai/ha
From the text: In order to determine if the overexpressed gene detailed in Example 3 confers resistance to BIO3-BIO1 inhibiting compounds when expressed in plants, GM tobacco lines were produced and tested with BIO3-BIO1 inhibiting compounds. Transgenic tobacco plants expressing the Escherichia coli BioA gene with (SEQ ID NO:203) and without a mitochondrial signal peptide (SEQ ID NO: 202).
Populations of transgenic tobacco comprising 20-30 transgenic events per plant transformation constructs were generated as described in Example 1. These lines were clonally propagated and 1 clone per event was sprayed with 600 g ai/ha compound L or A+0.2% Genapol X080 with a spray volume of 200 L/Ha (“g ai/ha” refers to grams of active compound per hectare).
[…] A score of 0 indicates no visible damage or stunting whereas a score of 100 indicates a complete death of the plant. 20 transgenic events (i.e. individual transgenic plants) from each GM tobacco line were transplanted to soil 1 week prior to spraying with BIO3-BIO1 inhibiting compounds. WT tobacco was included as a control.

T2 sequence (B0F481 24-833 C388D): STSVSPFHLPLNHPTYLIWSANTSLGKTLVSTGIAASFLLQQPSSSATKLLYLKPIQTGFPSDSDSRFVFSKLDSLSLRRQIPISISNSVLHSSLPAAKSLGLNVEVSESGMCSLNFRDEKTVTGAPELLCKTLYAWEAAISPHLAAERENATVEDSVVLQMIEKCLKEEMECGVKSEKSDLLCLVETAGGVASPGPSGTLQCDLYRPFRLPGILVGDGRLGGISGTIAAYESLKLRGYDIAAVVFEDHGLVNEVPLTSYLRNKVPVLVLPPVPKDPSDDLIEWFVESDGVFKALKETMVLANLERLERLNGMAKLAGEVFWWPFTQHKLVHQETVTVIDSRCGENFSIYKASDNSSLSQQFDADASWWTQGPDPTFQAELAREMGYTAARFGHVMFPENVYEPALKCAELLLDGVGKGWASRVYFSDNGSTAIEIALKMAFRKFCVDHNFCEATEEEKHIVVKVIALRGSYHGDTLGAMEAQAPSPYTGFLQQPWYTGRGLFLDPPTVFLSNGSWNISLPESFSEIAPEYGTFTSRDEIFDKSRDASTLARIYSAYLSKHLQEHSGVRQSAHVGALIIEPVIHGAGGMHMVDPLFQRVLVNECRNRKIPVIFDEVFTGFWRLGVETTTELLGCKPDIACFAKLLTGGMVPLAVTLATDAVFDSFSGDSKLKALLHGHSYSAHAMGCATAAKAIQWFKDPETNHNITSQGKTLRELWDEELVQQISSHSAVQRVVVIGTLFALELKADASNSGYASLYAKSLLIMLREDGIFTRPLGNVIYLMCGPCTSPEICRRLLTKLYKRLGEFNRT

CCn1c(Cn2ccc(C(F)(F)F)n2)cc(=O)c(C(=O)O)c1-c1ccc(Cl)c(Cl)c1 [Compound L, 2-(3,4-dichlorophenyl)-1-ethyl-4-oxo-6-[[3-(trifluoromethyl)pyrazol-1-yl]methyl]pyridine-3-carboxylic acid]
IC50 [1]: 0.145 µM
IC50 [2]: 100 µM
percentage of damage (herbicide damage score) ([3]; D4539 event 8385, 7 DAT): 10%
percentage of damage (herbicide damage score) ([3]; D4539 event 8385, 14 DAT): 0%
percentage of damage (herbicide damage score) ([3]; D4539 event 8385, 21 DAT): 0%
percentage of damage (herbicide damage score) ([3]; D4539 event 8386, 7 DAT): 7%
percentage of damage (herbicide damage score) ([3]; D4539 event 8386, 14 DAT): 0%
percentage of damage (herbicide damage score) ([3]; D4539 event 8386, 21 DAT): 0%
percentage of damage (herbicide damage score) ([3]; D4539 event 8399, 7 DAT): 2%
percentage of damage (herbicide damage score) ([3]; D4539 event 8399, 14 DAT): 0%
percentage of damage (herbicide damage score) ([3]; D4539 event 8399, 21 DAT): 0%
percentage of damage (herbicide damage score) ([3]; D4539 event 8402, 7 DAT): 3%
percentage of damage (herbicide damage score) ([3]; D4539 event 8402, 14 DAT): 0%
percentage of damage (herbicide damage score) ([3]; D4539 event 8402, 21 DAT): 0%
percentage of damage (herbicide damage score) ([3]; D4539 event 8414, 7 DAT): 2%
percentage of damage (herbicide damage score) ([3]; D4539 event 8414, 14 DAT): 0%
percentage of damage (herbicide damage score) ([3]; D4539 event 8414, 21 DAT): 0%
percentage of damage (herbicide damage score) ([3]; D4539 event 8415, 7 DAT): 7%
percentage of damage (herbicide damage score) ([3]; D4539 event 8415, 14 DAT): 0%
percentage of damage (herbicide damage score) ([3]; D4539 event 8415, 21 DAT): 0%
percentage of damage (herbicide damage score) ([3]; D4539 event 8417, 7 DAT): 2%
percentage of damage (herbicide damage score) ([3]; D4539 event 8417, 14 DAT): 0%
percentage of damage (herbicide damage score) ([3]; D4539 event 8417, 21 DAT): 20%
percentage of damage (herbicide damage score) ([3]; D4539 event 8418, 7 DAT): 10%
percentage of damage (herbicide damage score) ([3]; D4539 event 8418, 14 DAT): 25%
percentage of damage (herbicide damage score) ([3]; D4539 event 8418, 21 DAT): 60%
percentage of damage (herbicide damage score) ([3]; D4539 event 8423, 7 DAT): 2%
percentage of damage (herbicide damage score) ([3]; D4539 event 8423, 14 DAT): 0%
percentage of damage (herbicide damage score) ([3]; D4539 event 8423, 21 DAT): 0%
percentage of damage (herbicide damage score) ([3]; D4539 event 8424, 7 DAT): 65%
percentage of damage (herbicide damage score) ([3]; D4539 event 8424, 14 DAT): 85%
percentage of damage (herbicide damage score) ([3]; D4539 event 8424, 21 DAT): 90%
percentage of damage (herbicide damage score) ([3]; D4539 event 8426, 7 DAT): 2%
percentage of damage (herbicide damage score) ([3]; D4539 event 8426, 14 DAT): 0%
percentage of damage (herbicide damage score) ([3]; D4539 event 8426, 21 DAT): 0%
percentage of damage (herbicide damage score) ([3]; D4539 event 8433, 7 DAT): 5%
percentage of damage (herbicide damage score) ([3]; D4539 event 8433, 14 DAT): 0%
percentage of damage (herbicide damage score) ([3]; D4539 event 8433, 21 DAT): 0%
percentage of damage (herbicide damage score) ([3]; D4539 event 8434, 7 DAT): 2%
percentage of damage (herbicide damage score) ([3]; D4539 event 8434, 14 DAT): 0%
percentage of damage (herbicide damage score) ([3]; D4539 event 8434, 21 DAT): 35%
percentage of damage (herbicide damage score) ([3]; D4539 event 8438, 7 DAT): 15%
percentage of damage (herbicide damage score) ([3]; D4539 event 8438, 14 DAT): 85%
percentage of damage (herbicide damage score) ([3]; D4539 event 8438, 21 DAT): 95%
percentage of damage (herbicide damage score) ([3]; D4539 event 8439, 7 DAT): 2%
percentage of damage (herbicide damage score) ([3]; D4539 event 8439, 14 DAT): 0%
percentage of damage (herbicide damage score) ([3]; D4539 event 8439, 21 DAT): 0%
percentage of damage (herbicide damage score) ([3]; D4539 event 8447, 7 DAT): 2%
percentage of damage (herbicide damage score) ([3]; D4539 event 8447, 14 DAT): 0%
percentage of damage (herbicide damage score) ([3]; D4539 event 8447, 21 DAT): 0%
percentage of damage (herbicide damage score) ([3]; D4539 event 8448, 7 DAT): 2%
percentage of damage (herbicide damage score) ([3]; D4539 event 8448, 14 DAT): 0%
percentage of damage (herbicide damage score) ([3]; D4539 event 8448, 21 DAT): 0%
percentage of damage (herbicide damage score) ([3]; D4539 event 8460, 7 DAT): 2%
percentage of damage (herbicide damage score) ([3]; D4539 event 8460, 14 DAT): 0%
percentage of damage (herbicide damage score) ([3]; D4539 event 8460, 21 DAT): 0%
percentage of damage (herbicide damage score) ([3]; D4539 event 8461, 7 DAT): 17%
percentage of damage (herbicide damage score) ([3]; D4539 event 8461, 14 DAT): 75%
percentage of damage (herbicide damage score) ([3]; D4539 event 8461, 21 DAT): 90%
percentage of damage (herbicide damage score) ([3]; D4539 event 8462, 7 DAT): 2%
percentage of damage (herbicide damage score) ([3]; D4539 event 8462, 14 DAT): 0%
percentage of damage (herbicide damage score) ([3]; D4539 event 8462, 21 DAT): 3%

CC(O)C(N)CCCCC(=O)O.Cl (stereo not shown) [Compound B, [5-carboxy-1-(1-hydroxyethyl)pentyl]ammonium chloride]
IC50 [1]: 2.81 µM
IC50 [2]: 29.2 µM
